In ChEMBL document CHEMBL5512683, “Discovery of Novel ERα and Aromatase Dual-Targeting PROTAC Degraders to Overcome Endocrine-Resistant Breast Cancer” (J Med Chem, 2024):
pIC50, pKi: −log10 of the molar value. Calls of active or inactive are those of the source. The calls are words filed in the database; no cut-off is given here.

Key:
[1] = Toxicity in Balb/c mouse xenografted with human MCF7 cells assessed as body weight loss at 5 mg/kg, ip every other day measured upto 20 days; type: organism-based; conditions: in vivo, 480 h, time < 20 day
[2] = Toxicity in Balb/c mouse xenografted with human MCF7 cells assessed as cellular morphology in kidney at 5 mg/kg, ip every other day measured upto 20 days; type: organism-based; conditions: in vivo, 480 h, time < 20 day
[3] = Toxicity in Balb/c mouse xenografted with human MCF7 cells assessed as cellular morphology in liver at 5 mg/kg, ip every other day measured upto 20 days; type: organism-based; conditions: in vivo, 480 h, time < 20 day
[4] = molecular target: T1, von Hippel-Lindau disease tumor suppressor/Aromatase (Homo sapiens, UniProt P11511+P40337); assay: PROTAC activity at human ARO/VHL E3 ligase in human MCF-7 cells assessed as degradation of ARO at 1 uM incubated for 24 hrs in presence of MG132 by Western blot analysis; type: cell-based; conditions: mcf7, 24 h
[5] = molecular target: T1, von Hippel-Lindau disease tumor suppressor/Aromatase; assay: PROTAC activity at human ARO/VHL E3 ligase in human MCF-7 cells assessed as degradation of ARO at 1 uM incubated for 24 hrs by Western blot analysis; type: cell-based; conditions: mcf7, 24 h
[6] = system: MCF7; assay: Reduction in ERS1 mRNA expression in resistant human MCF7 cells harboring EGFR at 5 uM by real-time quantitative polymerase chain reaction (RT-qPCR) analysis; type: functional, cell-based
[7] = molecular target: Estrogen receptor beta (Homo sapiens, UniProt Q92731); assay: Binding affinity to human ERbeta assessed as inhibition constant incubated under dark condition for 2 hrs by competitive fluorometric binding assay
[8] = system: MCF7; assay: Antiproliferative activity against human resistant MCF7 cells harboring ERalpha Y537S mutant at LBD assessed as cell viability incubated for 96 hrs by CCK8 assay; conditions: MCF7, 96 h
[9] = system: MCF7; assay: Induction of degradation of MYC protein in human MCF7 cells at 0.5 to 5 uM by Western blot analysis; type: functional, cell-based; conditions: dose 0.5-5 µM
[10] = system: MCF7; assay: Antiproliferative activity against human resistant MCF7 cells harboring ERalpha D538G mutant at LBD assessed as cell viability incubated for 96 hrs by CCK8 assay; conditions: MCF7, 96 h
[11] = system: MCF7; assay: Reduction in MYC mRNA expression in resistant human MCF7 cells harboring ERalpha Y537S mutant at 5 uM by real-time quantitative polymerase chain reaction (RT-qPCR) analysis; type: functional, cell-based
[12] = system: MCF7; assay: Reduction in MYC mRNA expression in resistant human MCF7 cells harboring ERalpha D538G mutant at 5 uM by real-time quantitative polymerase chain reaction (RT-qPCR) analysis; type: functional, cell-based
[13] = molecular target: T1, von Hippel-Lindau disease tumor suppressor/Aromatase; assay: PROTAC activity at human ARO/VHL E3 ligase in human MCF-7 cells assessed as degradation of ARO incubated for 24 hrs by Western blot analysis; type: cell-based; conditions: mcf7, 24 h
[14] = system: MCF7; assay: In vivo antitumor activity against human MCF7 cells xenografted in Balb/c mouse model assessed as reduction in number of Ki67 positive cells in tumor at 5 mg/kg, ip every other day measured upto 20 days; type: functional, organism-based; conditions: time <= 20.0 day
[15] = system: MCF7; assay: In vivo PROTAC activity in aromatase/VHL E3 ligase in human MCF7 cell xenografted in Balb/c mouse model assessed as reduction in ARO level in tumor at 5 mg/kg, ip every other day measured upto 20 days; type: functional, organism-based; conditions: time <= 20.0 day
[16] = system: MCF7; assay: Reduction in ERS1 mRNA expression in resistant human MCF7 cells harboring ERalpha Y537S mutant at 5 uM by real-time quantitative polymerase chain reaction (RT-qPCR) analysis; type: functional, cell-based
[17] = system: MCF7; assay: Antitumor activity against human MCF7 cells xenografted in Balb/c mouse model assessed as tumor growth inhibition at 5 mg/kg, ip every other day measured upto 20 days; type: functional, organism-based; conditions: time <= 20.0 day
[18] = system: MCF7; assay: Induction of cell cycle arrest in human MCF7 cells assessed as accumulation of cells at G2/M phase at 5 uM incubated for 48 hrs by flow cytometry (reference value: 54.10%); type: functional
[19] = Toxicity in Balb/c mouse xenografted with human MCF7 cells assessed as cellular morphology in heart at 5 mg/kg, ip every other day measured upto 20 days; type: organism-based; conditions: in vivo, 480 h, time < 20 day
[20] = system: MCF7; assay: Anti-proliferative activity against ERalpha positive human MCF7 cells incubated for 96 hrs by CCK8 assay; conditions: MCF7, 96 h
[21] = system: MCF7; assay: In vivo PROTAC activity in ERalpha/VHL E3 ligase in human MCF7 cell xenografted in Balb/c mouse model assessed as reduction in ERalpha level in tumor at 5 mg/kg, ip every other day measured upto 20 days; type: functional, organism-based; conditions: time <= 20.0 day
[22] = system: MCF7; assay: Reduction in MYC mRNA expression in resistant human MCF7 cells harboring EGFR at 5 uM by real-time quantitative polymerase chain reaction (RT-qPCR) analysis; type: functional, cell-based
[23] = Toxicity in Balb/c mouse xenografted with human MCF7 cells assessed as cellular morphology in spleen at 5 mg/kg, ip every other day measured upto 20 days; type: organism-based; conditions: in vivo, 480 h, time < 20 day
[24] = molecular target: T2, Aromatase (Homo sapiens, UniProt P11511); assay: Inhibition of recombinant human aromatase using ARO substrate/NADP+ mixture by fluorescence assay
T2 sequence (P11511 whole entry): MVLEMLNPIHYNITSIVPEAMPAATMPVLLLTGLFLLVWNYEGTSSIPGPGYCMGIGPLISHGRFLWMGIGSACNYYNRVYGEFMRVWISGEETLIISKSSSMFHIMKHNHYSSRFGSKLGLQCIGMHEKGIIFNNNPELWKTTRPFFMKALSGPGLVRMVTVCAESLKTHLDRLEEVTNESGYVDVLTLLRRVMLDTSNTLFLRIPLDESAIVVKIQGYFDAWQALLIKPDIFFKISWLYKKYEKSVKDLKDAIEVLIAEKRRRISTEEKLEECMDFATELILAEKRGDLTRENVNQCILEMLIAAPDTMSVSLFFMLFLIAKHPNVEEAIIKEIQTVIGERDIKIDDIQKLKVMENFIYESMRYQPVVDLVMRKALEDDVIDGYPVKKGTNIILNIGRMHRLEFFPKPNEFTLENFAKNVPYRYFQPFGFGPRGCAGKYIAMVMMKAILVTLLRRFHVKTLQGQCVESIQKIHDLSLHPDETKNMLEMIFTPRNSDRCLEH

[25] = system: MCF7; assay: Induction of degradation of MYC protein in human MCF7 cells harboring EGFR at 0.5 to 5 uM by Western blot analysis; type: functional, cell-based; conditions: dose 0.5-5 µM
[26] = system: MCF7; assay: Induction of degradation of MYC protein in human MCF7 cells harboring ERalpha Y537S mutant at 0.5 to 5 uM by Western blot analysis; type: functional, cell-based; conditions: dose 0.5-5 µM
[27] = system: MCF7; assay: Induction of degradation of MYC protein in human MCF7 cells harboring ERalpha D538G mutant at 0.5 to 5 uM by Western blot analysis; type: functional, cell-based; conditions: dose 0.5-5 µM
[28] = system: MCF7; assay: Reduction in ERS1 mRNA expression in resistant human MCF7 cells harboring ERalpha D538G mutant at 5 uM by real-time quantitative polymerase chain reaction (RT-qPCR) analysis; type: functional, cell-based
[29] = system: MCF7; assay: Antiproliferative activity against human resistant MCF7 cells harboring EGFR assessed as cell viability incubated for 96 hrs by CCK8 assay; conditions: MCF7, 96 h
[30] = Anti-proliferative activity against human MCF-10A cells incubated for 96 hrs by CCK8 assay; type: toxicity, cell-based
[31] = system: MCF7; assay: Reduction in MYC mRNA expression in resistant human MCF7 cells at 5 uM by real-time quantitative polymerase chain reaction (RT-qPCR) analysis; type: functional, cell-based
[32] = system: MCF7; assay: Reduction in ERS1 mRNA expression in resistant human MCF7 cells at 5 uM by real-time quantitative polymerase chain reaction (RT-qPCR) analysis; type: functional, cell-based
[33] = molecular target: T1, von Hippel-Lindau disease tumor suppressor/Aromatase; assay: PROTAC activity at human ARO/VHL E3 ligase in resistant human MCF-7 cells harboring EGFR assessed as degradation of ARO at 0.5 to 10 uM incubated for 24 hrs by Western blot analysis; type: cell-based; conditions: mcf7, 24 h, dose 0.5-10 µM

T1 sequence (P40337 whole entry, one chain of several): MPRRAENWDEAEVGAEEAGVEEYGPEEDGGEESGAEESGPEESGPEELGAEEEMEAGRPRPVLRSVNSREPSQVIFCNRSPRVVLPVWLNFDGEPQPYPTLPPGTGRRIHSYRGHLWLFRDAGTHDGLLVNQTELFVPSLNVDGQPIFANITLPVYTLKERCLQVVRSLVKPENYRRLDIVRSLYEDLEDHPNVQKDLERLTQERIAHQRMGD
Sequence of Estrogen receptor beta (Q92731 whole entry, the tested form may be a part): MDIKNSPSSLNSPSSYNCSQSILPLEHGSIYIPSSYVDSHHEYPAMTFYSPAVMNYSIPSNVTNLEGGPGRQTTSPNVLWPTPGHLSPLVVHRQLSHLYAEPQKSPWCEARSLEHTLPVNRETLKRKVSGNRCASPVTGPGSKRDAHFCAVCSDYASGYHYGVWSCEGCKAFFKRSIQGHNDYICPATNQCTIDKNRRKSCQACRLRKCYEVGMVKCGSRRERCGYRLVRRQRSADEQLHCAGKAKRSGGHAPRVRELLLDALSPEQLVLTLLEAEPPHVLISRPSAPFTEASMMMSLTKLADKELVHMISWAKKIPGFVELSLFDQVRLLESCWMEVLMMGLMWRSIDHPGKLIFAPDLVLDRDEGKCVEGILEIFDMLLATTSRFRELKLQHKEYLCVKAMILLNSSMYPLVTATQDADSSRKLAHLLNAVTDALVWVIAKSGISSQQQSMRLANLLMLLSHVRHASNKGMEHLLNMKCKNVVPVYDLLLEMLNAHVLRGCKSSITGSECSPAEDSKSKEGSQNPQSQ

## Cc1ncsc1-c1ccc([C@H](C)NC(=O)[C@@H]2C[C@@H](O)CN2C(=O)[C@@H](NC(=O)CCCCCOc2ccc(N(CC(F)(F)F)S(=O)(=O)C3CC4OC3C(c3ccc(-n5ccnc5)cc3)=C4c3ccc(O)cc3)cc2)C(C)(C)C)cc1 (some centres not stated)
[1]
  Activity: Non-Toxic
[2]
  Activity: Non-Toxic
[3]
  Activity: Non-Toxic
[4]
  Activity: Not Active
[5]
  Activity: Active
[6]
  Activity: Active
[7]
  pKi: < 4.10
[8]
  pIC50: 5.64
[9]
  Activity: Active
[10]
  pIC50: 6.51
[11]
  Activity: Active
[12]
  Activity: Active
[13]
  Activity: Dose-Dependent Effect
[14]
  Activity: Active
[15]
  Activity: Active
[16]
  Activity: Active
[17]
  Activity: Active
[18]
  Activity: 66.31%
[19]
  Activity: Non-Toxic
[20]
  pIC50: 6.27
[21]
  Activity: Active
[22]
  Activity: Active
[23]
  Activity: Non-Toxic
[24]
  pIC50: 5.34
[25]
  Activity: inactive
[26]
  Activity: inactive
[27]
  Activity: inactive
[28]
  Activity: Active
[29]
  pIC50: 7.12
[30]
  IC50 at 96 h: > 100000 nM

## Cc1ncsc1-c1ccc([C@H](C)NC(=O)[C@@H]2C[C@@H](O)CN2C(=O)[C@@H](NC(=O)COCCOCCOc2ccc(N(CC(F)(F)F)S(=O)(=O)C3CC4OC3C(c3ccc(-n5ccnc5)cc3)=C4c3ccc(O)cc3)cc2)C(C)(C)C)cc1 (some centres not stated)
[5]
  Activity: Active
[6]
  Activity: inactive
[8]
  pIC50: 5.68
[10]
  pIC50: 5.00
[11]
  Activity: Active
[12]
  Activity: Active
[13]
  Activity: Dose-Dependent Effect
[31]
  Activity: inactive
[32]
  Activity: inactive
[16]
  Activity: inactive
[20]
  pIC50: 6.46
[22]
  Activity: Active
[24]
  pIC50: 6.49
[28]
  Activity: inactive
[33]
  Activity: Active
[29]
  pIC50: 5.36
[30]
  IC50 at 96 h: > 100000 nM
